Source: patent publication US20060234944A1, “Beta-secretase inhibitors and methods of use” (Oklahoma Medical Reseach Foundation, priority 2001, published 2006)
*1 amine or outer side, *2 acyl side, *3 side chain or, on linkers, in order; H or OH if unused. Where a SMILES comes first, the peptide text is derived from it. [ ]: non-standard residue; d: D form. The star is where a group is joined. LeuΨ(S-CHOHCH2)Ala = CC(C)C[C@H](N[*:1])[C@@H](O)C[C@@H](C)C(=O)[*:2]; 5FAM = O=C1OC2(c3ccc(O)cc3Oc3cc(O)ccc32)c2ccc(C(=O)*)cc21; Ahx = NCCCCCC(=O)O

Tests used:
HEK293 cells = experiment: Entry of fluorescently labelled inhibitors into cultured cells (flow cytometry); format: cell-based, human; conditions: 10 to 30 minutes incubation
Experimental: Fluorescently labelled inhibitors or fluorescein (Fs) as a control were incubated with suspended cells for time intervals ranging from 10 to 30 minutes. Cells were fixed with paraformaldehyde and permeabilized in 0.2% Tween-20 in PBS for 6 minutes and incubated with anti-fluorescein-Alexa™ 488 antibody (Molecular Probes, Eugene, Oreg.) in order to enhance detection of intracellular inhibitor present from penetration. Flow cytometry (FACSCalibur™) and confocal fluorescent microscopy (Leica TCS NT™) were performed at the Flow and Image Cytometry Lab, OUHSC.

[1] = Transport of conjugated inhibitors into mouse blood cells, splenocytes and brain after i.p. injection
Experimental: Whole blood cells (with EDTA as anti-coagulant in the syringe or in the capillary tube) were isolated from anesthetized animals from the orbital artery or by heart puncture and diluted 1:10 in PBS. Prior to the harvest of other tissue samples, animals were anesthetized and perfused with 150 ml of neutral-buffered 10% formalin. Spleens were harvested intact. Brains were harvested and cerebral hemispheres separated, one for sectioning by cryostat, the other for single cell isolation for flow cytometry.
Sections of the brain hemispheres were obtained by soaking in OCT/PBS at 4° C. for overnight, recovered and frozen in Histo Prep Media.
To collect single cell suspensions, spleens and brain hemispheres were homogenized through a 30 μm screen and directly analyzed by flow cytometric analysis.

memapsin 2 = target: T1, memapsin 2 (Homo sapiens, UniProt P56817); experiment: Inhibition of memapsin 2 cleavage of fluorogenic substrate FS-2 (Ki, Ki apparent, Vi/Vo, % inhibition); format: biochemical; conditions: for % Inh (M1/M2): Table 9, ratio of % inhibition memapsin 1 / memapsin 2, 1 or less = greater inhibition of memapsin 2
T1 construct: made in house; host or cells: E. coli
T1 sequence (P56817 41-454): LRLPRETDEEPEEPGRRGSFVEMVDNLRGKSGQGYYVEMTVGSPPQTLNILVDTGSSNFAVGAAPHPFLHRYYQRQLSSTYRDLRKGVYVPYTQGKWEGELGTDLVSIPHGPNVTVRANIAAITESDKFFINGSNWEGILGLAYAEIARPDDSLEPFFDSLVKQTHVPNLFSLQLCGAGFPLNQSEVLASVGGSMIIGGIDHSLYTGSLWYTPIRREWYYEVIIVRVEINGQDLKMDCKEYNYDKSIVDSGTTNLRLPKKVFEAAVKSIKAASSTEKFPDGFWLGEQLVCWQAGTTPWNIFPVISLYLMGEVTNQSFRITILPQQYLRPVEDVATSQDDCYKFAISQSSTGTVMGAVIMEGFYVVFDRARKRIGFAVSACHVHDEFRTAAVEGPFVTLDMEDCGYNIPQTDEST
Experimental: Ki is the inhibition equilibrium constant which indicates the ability of compounds to inhibit the β-secretase activity of memapsin 2 and memapsin 1. […] The K1 value is independent of the substrate, and converted from Ki apparent.
The Vi/Vo values depicted in Table 1 were determined at conditions under which the enzyme and inhibitor concentrations were equal (e.g., about 80 nM, 100 nM).
The relationship of Ki (independent of substrate concentration) to Kiapp is a function of substrate concentration in the assay and the Km for cleavage of the substrate by either memapsin 1 or memapsin 2 by the relationship: Kiapp=Ki(1+[S]/Km).
Ki is the inhibition equilibrium constant which indicates the ability of compounds to inhibit the β-secretase activity of memapsin 2 and memapsin 1. […] The Ki value is independent of the substrate, and converted from Ki apparent.
An aliquot of the inhibitor of known concentration in DMSO was diluted into 1.8 ml 0.1 M NaOAc, pH 4.0. DMSO and added to a final concentration of 10% (v/v), and memapsin 2 (final concentration of 80 nM), followed by a 20 minute equilibration at 37° C. Compounds were evaluated for the ability to inhibit memapsin 1 and memapsin 2 at concentrations between about 10 nM and about 10 μm of inhibitor.
The relationship of Ki (independent of substrate concentration) to Kiapp is a function of substrate concentration in the assay and the Km for cleavage of the substrate by either memapsin 1 or memapsin 2 by the relationship: Kiapp=Ki (1+[S]/Km).

plasma Aβ40 [2] = experiment: Inhibition of Aβ production in tg2576 transgenic mice (plasma Aβ40 ELISA); format: in vivo
Experimental: Six-month-old tg2576 mice (n=21) were injected intraperitoneally (i.p.) 200 μg of conjugate CPI-3 or with control DMSO, in 200 μl of PBS. Plasma were collected from anesthetized animals by orbital bleed or sephaneous vein into heparinized capillary tubes and clarified by centrifugation. Plasma A≢ 1-40 levels were determined by capture ELISA (BioSource International, Camarillo, Calif.). The peptide analogue of CPI-3, with an amide group instead of the hydroxyethylene isostere was synthesized by SynPep (Camarillo, Calif.).
Since the conjugate inhibitors can cross the blood brain barrier in vivo, enter cells both in vitro and in vivo, and inhibit Aβ production in vitro, inhibition of Aβ production in vivo was determined. Tg2576 mice, expressing the Swedish mutation of the human amyloid precursor protein (including SEQ ID NO: 11) (Hsiao, K., et al., Science 274:99-102 (1996), the teachings of which are incorporated hereby in their entirety) were injected with CPI-3, which is identical in amino acid sequence to CPI-2 and lacks the amino-terminal fluorescein (FAM) derivative. Blood was collected from tg2576 animals at time intervals following injection of 400 μg of CPI-3.

plasma Aβ40 [3] = experiment: Inhibition of Aβ production in APP/F transgenic mouse model of Alzheimer's disease (plasma Aβ40 sandwich ELISA); format: in vivo, mice; conditions: for Reduction of plasma Aβ40 / Course of inhibition of plasma Aβ40 over a 24-h period: APP/F mice; for Reduction of plasma Aβ40: about 163 nanomoles i.p., within 30 minutes following injection; for Course of inhibition of plasma Aβ40 over a 24-h period: single i.p. injection; for Blood brain barrier penetration in transgenic mice: concluded from reduction of plasma Aβ
Experimental: Compounds MMI-138, MMI-165, and MMI-185 were synthesized as described above. Compounds were dissolved in 1 ml of dimethyl sulfoxide (DMSO) to a final concentration of about 1 mg/ml for MMI-165 and MMI-185, and about 10 mg/ml for MMI-138. […] Inhibitors were diluted into PBS or H2O immediately prior to injection, as described below. Inhibition constants were determined by methods described by Ermolieff, et al (Biochem. 39:12450-12456 (2000), the teachings of which are incorporated hereby in their entirety).
The tg2576 strain of mice was obtained from Taconic (Germantown, N.Y.). The APP/F strain of mice were obtained by mating the tg2576 mice with the FVB/N strain. To determine presence of the Swedish APP gene in APP/F mice, the DNA from mice was isolated according to the Qiagen Dneasy™ Tissue Kit. PCR (Qiagen kit and protocol) was used to amplify the fragment of DNA corresponding to the human Swedish APP gene. The following primers were used: […]
At the age of three months, animals of the Alzheimer's disease mouse model APP/F were injected intraperitoneally (i.p.) with about 163 nanomoles of either compounds MMI-138 (molecular weight 674 g/mole; 110 μg per animal, n=2), MMI-165 (molecular weight 626 g/mole; 102 μg per animal, n—2), or MMI-185 (molecular weight 686; 112 μg per animal, n—2).
Heparinized capillary tubes collected blood samples from anesthetized animals from either the retro-orbital sinus or from the saphenous vein at specified intervals following injection. The blood samples were transferred to sterile 1.5 mL microcentrifuge tubes, centrifuged at 5,100 RPM for 10 minutes to recover the plasma (supernatant), and stored at −70° C. until analysis for the Aβ40 by Enzyme Linked-Immuno-Sorbent Assay (ELISA).
A sandwich ELISA (BioSource International, Camarillo, Calif.) was used to determine the levels of Aβ40 in plasma samples. The ELISA utilizes a primary antibody specific for human Aβ for the immobilization of the amino-terminus and a detection antibody specific for the carboxy-terminal amino acids of Aβ40. A conjugated secondary antibody was used to detect the ternary complex, using a stabilized chromogen substrate, quantifiable following addition of 1 M HCl, with the optical densities measured at 450 nm. The procedures were followed according to the BioSource protocol. Optical densities were converted to pg/ml quantities of Aβ40 using a linear regression of the optical densities of standards obtained from the commercial kit, to their known concentrations.

[4] = four injections at 2 hour intervals

| Structure (SMILES) | % Inh (M1/M2) (memapsin 2) | Blood brain barrier penetration in transgenic mice (plasma Aβ40 [3]) | Penetration of cultured cells (intracellular fluorescence) (HEK293 cells) | Reduction of plasma Aβ40 (plasma Aβ40 [3]) [%] | Course of inhibition of plasma Aβ40 over a 24-h period (plasma Aβ40 [3]) | further results |
| --- | --- | --- | --- | --- | --- | --- |
| CC(C)C[C@H](NC(=O)[C@H](CC(N)=O)NC(=O)[C@@H](NC(=O)[C@H](CCC(=O)O)NC(=O)CCCCCNC(=O)c1ccc2c(c1)C(=O)OC21c2ccc(O)cc2Oc2cc(O)ccc21)C(C)C)[C@@H](O)C[C@@H](C)C(=O)N[C@@H](C)C(=O)N[C@@H](CCC(=O)O)C(=O)N[C@@H](Cc1ccccc1)C(=O)NCC(=O)N[C@@H](Cc1ccc(O)cc1)C(=O)NCC(=O)N[C@@H](CCCNC(=N)N)C(=O)N[C@@H](CCCCN)C(=O)N[C@@H](CCCCN)C(=O)N[C@@H](CCCNC(=N)N)C(=O)N[C@@H](CCCNC(=N)N)C(=O)N[C@@H](CCC(N)=O)C(=O)N[C@@H](CCCNC(=N)N)C(=O)N[C@@H](CCCNC(=N)N)C(=O)N[C@@H](CCCNC(=N)N)C(=O)O [CPI-1] ({5FAM-Ahx}-EVN[LeuΨ(S-CHOHCH2)Ala]AEFGYGRKKRRQRRR-OH) | – | – | readily penetrated cultured cells within minutes | – | – | Uptake into brain (fluorescence) ([1]; 8 hours after i.p. injection, flow cytometry or confocal microscopy of brain sections): penetration of the fluorescent conjugate into all brain cells; Blood cells with strong fluorescence signal ([1]; whole blood 20 minutes after i.p. injection of 0.3 nmol): approximately 100% |
| CC(C)C[C@H](NC(=O)[C@H](CCC(=O)O)NC(=O)CCCCCNC(=O)c1ccc2c(c1)C(=O)OC21c2ccc(O)cc2Oc2cc(O)ccc21)C(=O)N[C@@H](CC(=O)O)C(=O)N[C@@H](CC(C)C)[C@@H](O)C[C@@H](C)C(=O)N[C@H](C(=O)N[C@@H](CCC(=O)O)C(=O)N[C@@H](Cc1ccccc1)C(=O)NCC(=O)NCC(=O)N[C@H](CCCNC(=N)N)C(=O)N[C@H](CCCNC(=N)N)C(=O)N[C@H](CCCNC(=N)N)C(=O)N[C@H](CCCNC(=N)N)C(=O)N[C@H](CCCNC(=N)N)C(=O)N[C@H](CCCNC(=N)N)C(=O)N[C@H](CCCNC(=N)N)C(=O)N[C@H](CCCNC(=N)N)C(=O)N[C@H](CCCNC(=N)N)C(=O)O)C(C)C [CPI-2] ({5FAM-Ahx}-ELD[LeuΨ(S-CHOHCH2)Ala]VEFGG[dR][dR][dR][dR][dR][dR][dR][dR][dR]-OH) | – | – | readily penetrated cultured cells within minutes | – | – | – |
| CC(C)C[C@H](NC(=O)[C@@H](N)CCC(=O)O)C(=O)N[C@@H](CC(=O)O)C(=O)N[C@@H](CC(C)C)[C@@H](O)C[C@@H](C)C(=O)N[C@H](C(=O)N[C@@H](CCC(=O)O)C(=O)N[C@@H](Cc1ccccc1)C(=O)NCC(=O)NCC(=O)N[C@H](CCCNC(=N)N)C(=O)N[C@H](CCCNC(=N)N)C(=O)N[C@H](CCCNC(=N)N)C(=O)N[C@H](CCCNC(=N)N)C(=O)N[C@H](CCCNC(=N)N)C(=O)N[C@H](CCCNC(=N)N)C(=O)N[C@H](CCCNC(=N)N)C(=O)N[C@H](CCCNC(=N)N)C(=O)N[C@H](CCCNC(=N)N)C(=O)O)C(C)C [CPI-3] (H-ELD[LeuΨ(S-CHOHCH2)Ala]VEFGG[dR][dR][dR][dR][dR][dR][dR][dR][dR]-OH; N-terminus and C-terminus assumed) | – | – | – | – | – | Ki (memapsin 2; read-out: Ki for memapsin 2): 35 nM; Plasma Aβ40 level relative to initial value (plasma Aβ40 [2]; 2 hours following i.p. injection): about one third; Aβ level, average low as % of the average initial value (plasma Aβ40 [2]; [4]): 29%; Inhibition of plasma Aβ (plasma Aβ40 [2]; [4]): about 80%; Plasma Aβ40 relative to PBS control two hours following injection (plasma Aβ40 [2]; i.p., various doses): significant dose-dependent reduction; Time of return of plasma Aβ40 to the initial value (plasma Aβ40 [2]; single i.p. injection): ≤ 8 h |

Second part, led by results:

| % Inh (M1/M2) (memapsin 2) | Blood brain barrier penetration in transgenic mice (plasma Aβ40 [3]) | Structure (SMILES) | Penetration of cultured cells (intracellular fluorescence) (HEK293 cells) | Reduction of plasma Aβ40 (plasma Aβ40 [3]) [%] | Course of inhibition of plasma Aβ40 over a 24-h period (plasma Aβ40 [3]) | further results |
| --- | --- | --- | --- | --- | --- | --- |
| 0.10 | penetrated the blood brain barrier | CSCC[C@H](NC(=O)OCn1nc(C)cc1C)C(=O)N[C@@H](CC(C)C)[C@@H](O)C[C@@H](C)C(=O)N[C@H](C(=O)NCc1ccccc1)C(C)C [MMI-138] | – | 57 | remained nearly constant | Ki for memapsin 2 lower than Ki for memapsin 1 (selectivity) (memapsin 2; memapsin 2 relative to memapsin 1, stated in text): about 60 fold |
| 0.45 | penetrated the blood brain barrier | CSCC[C@H](NC(=O)OCn1nc(C)cc1C)C(=O)N[C@@H](CC(C)C)[C@@H](O)C[C@@H](C)C(=O)N[C@H](C(=O)NC(C)C)C(C)C [MMI-165] | – | 46 | remained nearly constant | – |
| 0.18 | – | CCCCNC(=O)[C@@H](NC(=O)[C@H](C)C[C@H](O)[C@H](CC(C)C)NC(=O)[C@H](CCSC)NC(=O)OCn1nc(C)cc1C)C(C)C [MMI-167] | – | – | – | – |
